Source: the supplement of paper PMC13380429

Tests used:
Conditions in all cases: 72 h
Caco-2 [1] = test: cell viability relative to DMSO; higher = less toxic
Calu-3 [2] = test: as above
HepG2 [3] = test: as above
U2OS [4] = test: as above
Caco-2 [5] = test: relative viability EC50 (midpoint between 100% and the lowest measured viability); higher = less toxic
Calu-3 [6] = test: as above
HepG2 [7] = test: as above
U2OS [8] = test: as above
Caco-2 [9] = test: drug sensitivity score (DSS) for viability; higher = more toxic; extreme values may be limits of the assay
Calu-3 [10] = test: as above
HepG2 [11] = test: as above
U2OS [12] = test: as above
Vero E6 [13] = test: cell viability relative to DMSO; higher = less toxic
Vero E6 [14] = test: relative viability EC50 (midpoint between 100% and the lowest measured viability); higher = less toxic
Vero E6 [15] = test: drug sensitivity score (DSS) for viability; higher = more toxic; extreme values may be limits of the assay

SMILES	cell viability (Caco-2 [1]; 1 nM) [%]	cell viability (Caco-2 [1]; 10 nM) [%]	cell viability (Caco-2 [1]; 100 nM) [%]	cell viability (Caco-2 [1]; 1000 nM) [%]	cell viability (Caco-2 [1]; 10000 nM) [%]	cell viability (Calu-3 [2]; 1 nM) [%]	cell viability (Calu-3 [2]; 10 nM) [%]	cell viability (Calu-3 [2]; 100 nM) [%]	cell viability (Calu-3 [2]; 1000 nM) [%]	cell viability (Calu-3 [2]; 10000 nM) [%]	cell viability (HepG2 [3]; 1 nM) [%]	cell viability (HepG2 [3]; 10 nM) [%]	cell viability (HepG2 [3]; 100 nM) [%]	cell viability (HepG2 [3]; 1000 nM) [%]	cell viability (HepG2 [3]; 10000 nM) [%]	cell viability (U2OS [4]; 1 nM) [%]	cell viability (U2OS [4]; 10 nM) [%]	cell viability (U2OS [4]; 100 nM) [%]	cell viability (U2OS [4]; 1000 nM) [%]	cell viability (U2OS [4]; 10000 nM) [%]	relative viability EC50 (Caco-2 [5]) [µM]	relative viability EC50 (Calu-3 [6]) [µM]	relative viability EC50 (HepG2 [7]) [µM]	relative viability EC50 (U2OS [8]) [µM]	drug sensitivity score (Caco-2 [9])	drug sensitivity score (Calu-3 [10])	drug sensitivity score (HepG2 [11])	drug sensitivity score (U2OS [12])	cell viability (Vero E6 [13]; 1 nM) [%]	cell viability (Vero E6 [13]; 10 nM) [%]	cell viability (Vero E6 [13]; 100 nM) [%]	cell viability (Vero E6 [13]; 1000 nM) [%]	cell viability (Vero E6 [13]; 10000 nM) [%]	relative viability EC50 (Vero E6 [14]) [µM]	drug sensitivity score (Vero E6 [15])
O=C(C(c1ccccc1)c1ccccc1)N1CCN(CC(O)COc2cccc3ncccc23)CC1 (stereo unspecified) [dofequidar]	102	99.9	94.7	103	86.3	90.5	97.8	109	129	104	95.7	104	105	105	102	97.4	102	94.2	102	93.8	> 10	> 10	> 10	> 10	0.1	0	0	0	–	–	–	–	–	–	–
O=c1ccc2cc3ccoc3cc2o1 [psoralen]	96.6	104	101	104	97.9	–	–	–	–	–	110	107	110	96.5	105	101	104	97.8	102	98.9	> 10	–	> 10	> 10	0	–	0	0	–	–	–	–	–	–	–
O=C(/C=C\n1cnc(-c2cc(C(F)(F)F)cc(C(F)(F)F)c2)n1)N1CC(F)(F)C1 [KPT-276]	104	91.2	88.8	73.9	66.2	97.3	102	97.2	64.1	68.3	100	85.5	80	44.4	32.8	106	96	91.4	68	17.3	–	–	0.19	1.3	5.4	6.7	12.8	8.2	93.5	96.1	82.3	69.8	36.9	0.611	8.1
c1coc(CNc2ncnc3[nH]cnc23)c1 [kinetin]	111	104	106	98.9	96.6	95.7	100	101	98.4	99.3	110	108	99	98.7	109	–	–	–	–	–	> 10	> 10	> 10	–	0	0	0	–	–	–	–	–	–	–	–
C[C@H](NC(=O)[C@@H](O)c1cc(F)cc(F)c1)C(=O)N[C@@H]1C(=O)N(C)c2ccccc2-c2ccccc21	101	89.2	101	86	91.3	98	87.7	97.9	101	100	97.1	95.6	102	101	88.2	96	93.9	94	93	94.7	> 10	> 10	> 10	> 10	0	0	0	0	–	–	–	–	–	–	–
